The values below come from ChEMBL document CHEMBL1955849, “Design and synthesis of thiourea compounds that inhibit transmembrane anchored carbonic anhydrases” (Bioorg Med Chem, 2012).

Series [1] has as its target Carbonic anhydrase 9 (Homo sapiens, UniProt Q16790).
Series [2] has as its target Carbonic anhydrase 1 (Homo sapiens, UniProt P00915).
Series [3] deals with Carbonic anhydrase 2 (Homo sapiens, UniProt P00918).
For series [4], the target named is Carbonic anhydrase 12 (Homo sapiens, UniProt O43570).
Series [5] deals with Carbonic anhydrase 14 (Homo sapiens, UniProt Q9ULX7).
The nature of series [6]: Solubility of the compound in water. Format: physicochemical.

pKi: −log10 of the molar value.

Carbonic anhydrase 1, sequence (P00915 whole entry): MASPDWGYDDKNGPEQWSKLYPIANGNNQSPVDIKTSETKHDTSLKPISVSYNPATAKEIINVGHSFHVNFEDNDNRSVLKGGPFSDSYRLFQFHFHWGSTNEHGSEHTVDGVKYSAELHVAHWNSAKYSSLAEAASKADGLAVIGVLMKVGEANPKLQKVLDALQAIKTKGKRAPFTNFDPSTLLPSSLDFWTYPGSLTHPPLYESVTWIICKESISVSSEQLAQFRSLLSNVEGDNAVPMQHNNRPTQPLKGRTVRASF
Carbonic anhydrase 14, sequence (Q9ULX7 whole entry): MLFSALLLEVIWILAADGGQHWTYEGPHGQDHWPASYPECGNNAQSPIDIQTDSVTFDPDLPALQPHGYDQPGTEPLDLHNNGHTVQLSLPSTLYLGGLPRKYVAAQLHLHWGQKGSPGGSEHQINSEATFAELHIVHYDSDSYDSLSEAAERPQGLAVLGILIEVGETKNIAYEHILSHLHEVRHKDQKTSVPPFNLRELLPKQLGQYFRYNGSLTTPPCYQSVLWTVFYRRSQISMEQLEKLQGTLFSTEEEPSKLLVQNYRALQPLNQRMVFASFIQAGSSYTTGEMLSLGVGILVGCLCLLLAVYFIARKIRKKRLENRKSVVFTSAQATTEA
Carbonic anhydrase 12, sequence (O43570 whole entry): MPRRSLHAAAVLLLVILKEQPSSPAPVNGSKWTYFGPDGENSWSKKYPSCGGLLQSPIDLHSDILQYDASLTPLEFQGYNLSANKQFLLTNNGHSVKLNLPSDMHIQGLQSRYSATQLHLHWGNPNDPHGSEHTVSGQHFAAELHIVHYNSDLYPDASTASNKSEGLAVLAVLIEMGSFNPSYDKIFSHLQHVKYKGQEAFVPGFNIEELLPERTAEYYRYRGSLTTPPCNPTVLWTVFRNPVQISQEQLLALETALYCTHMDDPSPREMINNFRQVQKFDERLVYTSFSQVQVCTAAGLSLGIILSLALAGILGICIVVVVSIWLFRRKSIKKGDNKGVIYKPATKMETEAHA

Take `CC(=O)OC[C@H]1O[C@@H](O[C@H]2[C@H](OC(C)=O)[C@@H](OC(C)=O)[C@H](NC(=S)NCCc3ccc(S(N)(=O)=O)cc3)O[C@@H]2COC(C)=O)[C@H](OC(C)=O)[C@@H](OC(C)=O)[C@H]1OC(C)=O`: the pKi in series [1] was 6.44; in series [2] it was 5.42; in series [3], 8.06; in series [4], 7.32; in series [5], 8.04.

On to `CC(=O)OC[C@H]1O[C@@H](NC(=S)Nc2ccc(S(N)(=O)=O)cc2)[C@H](OC(C)=O)[C@@H](OC(C)=O)[C@H]1OC(C)=O`, for which the pKi in series [2] was 5.17; in series [3], 6.28; in series [4] it was 7.34; in series [5], 6.90.

Turning to `CC(=O)OC[C@H]1O[C@@H](NC(=S)NCc2ccc(S(N)(=O)=O)cc2)[C@H](OC(C)=O)[C@@H](OC(C)=O)[C@H]1OC(C)=O`, the pKi is 5.20 in series [2], 7.92 in series [3], 7.00 in series [4] and 6.09 in series [5].

As for `CC(=O)OC[C@H]1O[C@@H](NC(=S)NCCc2ccc(S(N)(=O)=O)cc2)[C@H](OC(C)=O)[C@@H](OC(C)=O)[C@@H]1O[C@H]1O[C@H](COC(C)=O)[C@@H](OC(C)=O)[C@H](OC(C)=O)[C@H]1OC(C)=O`, the pKi in series [1] was 6.91; in series [2], 5.43; in series [3], 8.01; in series [4] it was 8.08; in series [5], 8.06.

For `CC(=O)OC[C@H]1O[C@@H](NC(=S)NCc2ccc(S(N)(=O)=O)cc2)[C@H](OC(C)=O)[C@@H](OC(C)=O)[C@@H]1OC(C)=O`, the pKi was 7.00 in series [2], 8.11 in series [3], 8.12 in series [4] and 8.07 in series [5].

Consider `NS(=O)(=O)c1ccc(C(=O)NNC(=S)N[C@@H]2O[C@H](CO)[C@@H](O)[C@H](O)[C@H]2O)cc1`, for which the solubility in series [6] is greater than 20 mg/mL. The pKi in series [2] is 5.10; in series [3], 6.28; in series [4], 8.07; in series [5], 8.10.

For `CC(=O)OC[C@H]1O[C@@H](NC(=S)NCCc2ccc(S(N)(=O)=O)cc2)[C@H](OC(C)=O)[C@@H](OC(C)=O)[C@H]1OC(C)=O`, the pKi in series [1] was 6.36; in series [2] it was 7.00; in series [3], 6.53; in series [4], 8.06; in series [5] it was 8.06.

Consider `CC(=O)OC[C@H]1O[C@@H](NC(=S)NNC(=O)c2ccc(S(N)(=O)=O)cc2)[C@H](OC(C)=O)[C@@H](OC(C)=O)[C@@H]1OC(C)=O`, for which the pKi is 8.06 in series [1]; 5.42 in series [2]; 8.00 in series [3]; 8.14 in series [4]; 7.99 in series [5].

For the compound `CC(=O)OC[C@H]1O[C@@H](O[C@H]2[C@H](OC(C)=O)[C@@H](OC(C)=O)[C@H](NC(=S)NCc3ccc(S(N)(=O)=O)cc3)O[C@@H]2COC(C)=O)[C@H](OC(C)=O)[C@@H](OC(C)=O)[C@H]1OC(C)=O`, the pKi in series [2] is 6.96; in series [3], 6.41; in series [4], 8.13; in series [5], 8.07.

`NS(=O)(=O)c1ccc(NC(=S)N[C@@H]2O[C@H](CO)[C@H](O)[C@H](O)[C@H]2O)cc1`: the solubility in series [6] was greater than 20 mg/mL. In addition, the pKi in series [2] was 5.16; in series [3], 6.65; in series [4], 7.70; in series [5] it was 6.90.

`NS(=O)(=O)c1ccc(C(=O)NNC(=S)N[C@@H]2O[C@H](CO)[C@@H](O[C@@H]3O[C@H](CO)[C@H](O)[C@H](O)[C@H]3O)[C@H](O)[C@H]2O)cc1`: the solubility in series [6] was greater than 20 mg/mL. The pKi in series [3] is 8.13; in series [4], 8.06; in series [5] it was 8.07.

With `NS(=O)(=O)c1ccc(C(=O)NNC(=S)N[C@@H]2O[C@H](CO)[C@@H](O[C@H]3O[C@H](CO)[C@@H](O)[C@H](O)[C@H]3O)[C@H](O)[C@H]2O)cc1`, in series [6], the solubility was greater than 20 mg/mL. In addition, the pKi is 6.96 in series [3], 8.09 in series [4] and 8.07 in series [5].

With `CC(=O)OC[C@H]1O[C@@H](NC(=S)Nc2ccc(S(N)(=O)=O)cc2)[C@H](OC(C)=O)[C@@H](OC(C)=O)[C@@H]1OC(C)=O`, the pKi was 5.31 in series [2], 8.15 in series [3], 8.14 in series [4] and 8.08 in series [5].

Take `CC(=O)OC[C@H]1O[C@@H](O[C@H]2[C@H](OC(C)=O)[C@@H](OC(C)=O)[C@H](NC(=S)NNC(=O)c3ccc(S(N)(=O)=O)cc3)O[C@@H]2COC(C)=O)[C@H](OC(C)=O)[C@@H](OC(C)=O)[C@H]1OC(C)=O`: the pKi in series [2] was 5.23; in series [3], 8.19; in series [4], 8.09; in series [5], 7.97.

As to `CC(=O)OC[C@H]1O[C@@H](NC(=S)NCc2ccc(S(N)(=O)=O)cc2)[C@H](OC(C)=O)[C@@H](OC(C)=O)[C@@H]1O[C@H]1O[C@H](COC(C)=O)[C@@H](OC(C)=O)[C@H](OC(C)=O)[C@H]1OC(C)=O`, the negative-log Ki (pKi) in series [2] is 5.34; in series [3], 8.14; in series [4], 8.08; in series [5] it was 8.07.

As to `NS(=O)(=O)c1ccc(C(=O)NNC(=S)N[C@@H]2O[C@H](CO)[C@H](O)[C@H](O)[C@H]2O)cc1`, the solubility in series [6] is greater than 20 mg/mL. Further, the pKi is 5.39 in series [2], 6.46 in series [3], 8.07 in series [4] and 8.09 in series [5].

Consider `CC(=O)OC[C@H]1O[C@@H](NC(=S)NNC(=O)c2ccc(S(N)(=O)=O)cc2)[C@H](OC(C)=O)[C@@H](OC(C)=O)[C@H]1OC(C)=O`, for which the pKi in series [1] is 8.48; in series [2], 5.19; in series [3], 8.07; in series [4], 8.11; in series [5], 7.97.

With `CC(=O)OC[C@H]1O[C@@H](NC(=S)NCCc2ccc(S(N)(=O)=O)cc2)[C@H](OC(C)=O)[C@@H](OC(C)=O)[C@@H]1OC(C)=O`, the pKi was 6.35 in series [1]; 5.26 in series [2]; 8.14 in series [3]; 8.05 in series [4]; 8.06 in series [5].

Consider `CC(=O)OC[C@H]1O[C@@H](NC(=S)Nc2ccc(S(N)(=O)=O)cc2)[C@H](OC(C)=O)[C@@H](OC(C)=O)[C@@H]1O[C@H]1O[C@H](COC(C)=O)[C@@H](OC(C)=O)[C@H](OC(C)=O)[C@H]1OC(C)=O`, for which the pKi is 5.22 in series [2], 6.27 in series [3], 8.00 in series [4] and 8.10 in series [5].

`CC(=O)OC[C@H]1O[C@@H](NC(=S)NNC(=O)c2ccc(S(N)(=O)=O)cc2)[C@H](OC(C)=O)[C@@H](OC(C)=O)[C@@H]1O[C@H]1O[C@H](COC(C)=O)[C@@H](OC(C)=O)[C@H](OC(C)=O)[C@H]1OC(C)=O`: the pKi in series [2] is 5.53; in series [3], 7.99; in series [4] it was 8.12; in series [5] it was 7.98.

Turning to `CC(=O)OC[C@H]1O[C@@H](O[C@H]2[C@H](OC(C)=O)[C@@H](OC(C)=O)[C@H](NC(=S)Nc3ccc(S(N)(=O)=O)cc3)O[C@@H]2COC(C)=O)[C@H](OC(C)=O)[C@@H](OC(C)=O)[C@H]1OC(C)=O`, the pKi is 7.00 in series [2], 8.12 in series [3], 8.09 in series [4] and 8.07 in series [5].

In general, pKi refers to −log10 of the Ki, conventionally taken in molar units. The low end stands for a high Ki, the high end for a low Ki. By solubility is commonly meant how much of the substance goes into solution per volume.
